Measurements as given in patent US8597904B2, “Pharmaceutical compositions for the treatment of conditions responsive to proteasome inhibition” (priority 2007, dated 2013).
pIC50: −log10 of the molar value.

Tests used:
[1] = test system: poly (ADP-ribose) polymerase (PARP); assay: Western blot of PARP cleavage in SK-N-SH cells; format: cell-based, human
Experimental: The induction of an apoptotic response in cancer cells by the addition of syringolin A was verified by monitoring the cleavage of poly (ADP-ribose) polymerase (PARP), a common response during apoptosis. SK-N-SH cells were cultured in the presence or absence of 20 μM syringolin A for 0, 24 and 48 hours, and cell lysates were then generated as described in Example 4 and probed for the presence of PARP by Western blotting using rabbit polyclonal anti-PARP (#9542) (diluted 1:1000) and the HRP-linked anti-rabbit secondary antibody described in Example 4. The results were representative of four independent experiments. […] The treatment of cells for 48 hours further increased the levels of cleaved PARP, whereas noncleaved PARP disappeared. In a similar manner, syringolin A induced PARP cleavage in SKOV3 cells, but noncleaved PARP was still detected 48 hours after treatment (FIG. 5B).
The role of glidobactin A (GlbA) in apoptosis and its correlation with autophagy has not previously been examined. Therefore, in a series of experiments, cell lysates of SK-N-SH cells were treated with GlbA in the presence and absence of the autophagy inhibitor 3-methyladenine (3-MA) and probed for poly ADP-ribose polymerase (PARP). The cleavage of PARP produces a smaller 89 kDa fragment which is indicative of late apoptosis.

[2] = target: T1, proteasome activity in SK-N-SH neuroblastoma cells (Homo sapiens, UniProt P28074); assay: Proteasome-Glo cell-based luminescent assay
T1 construct: endogenous in cells; host or cells: SK-N-SH
T1 sequence (P28074 60-263): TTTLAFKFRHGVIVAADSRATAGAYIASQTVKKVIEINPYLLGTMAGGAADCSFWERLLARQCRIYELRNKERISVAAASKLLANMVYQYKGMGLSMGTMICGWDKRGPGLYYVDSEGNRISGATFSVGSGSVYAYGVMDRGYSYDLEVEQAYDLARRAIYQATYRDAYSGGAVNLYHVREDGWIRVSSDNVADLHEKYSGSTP
Experimental: Syringolin A was tested as a proteasome inhibitor in vivo in cultured mammalian cancer cells. Inhibition of proteasome activity in human SK-N-SH neuroblastoma cells was measured using the Proteasome-Glo™ cell-based luminescent assay (Promega) in solid white 96-well microtiter cell culture plates. Ten μl of syringolin A (at various concentrations) was added to each well containing SK-N-SH cells (plated at a concentration of 1.0×10^5 cells/ml in 90 μl well volumes 24 hours prior) and a negative control and media only control were included. Cells were incubated with 1-100 μM syringolin A for 2 hours or 24 hours, and then equilibrated to room temperature for 15 minutes before 100 μl of Proteasome-Glo reagent (containing bioluminescent substrate Suc-LLVY-aminoluciferin) was added to the cells. Luminescence (indicated as relative luminescence units [RLU]) was read after 15-30 minutes on a Dynex MLX Luminometer.
To trace the kinetics of proteasome inhibition in the presence of syringolin, the same experiment was performed, but in this case, 100 μl of Proteasome-Glo reagent was added to cells first, followed by the addition of syringolin A at various concentrations, and the proteasome activity was measured over time.
The cell culture-based proteasome inhibition assay was performed as previously described (Groll et al. 2008. Nature 452:755-758, which is incorporated herein by reference in its entirety). Briefly, wells of white-walled 96-well microtiter cell culture plates were seeded at a density of 1×10^4 cells/well (SK-N-SH) or 5×10^3 cells/well (SKOV3) in 90 μl. After 24 hours, 10 μl GlbA or SylA were added at increasing concentrations (0-100 μM) and incubated for 2 hours. […] Cell Death Differ 9:1017-1025; Meng, et al. 1999. PNAS 96:10403-10408, each of which is incorporated herein by reference in its entirety) were used as positive and negative controls, respectively. Microtiter plates were then equilibrated to room temperature for 15 min before adding 100 μl of proteasome Glo™ reagent (containing bioluminescent substrate Suc-LLVY-aminoluciferin) per well. Luminescence was measured on a Dynex MLX luminometer, according to the manufacturer's instructions (Promega).

[3] = test system: Akt/PKB; assay: Western blot of Akt/PKB and phosphorylation at Ser473 in SK-N-SH cells; format: cell-based, human
Experimental: Since Akt/PKB is a well-characterized anti-apoptotic protein, total Akt/PKB levels were measured in treated cells in addition to determining the protein's phosphorylation status at residue Ser473, which is indicative of its activity. SK-N-SH cells were treated with GlbA in the presence or absence of 3-MA, and cell lysates were analyzed for Akt/PKB.

| Compound | PARP cleavage ([1]; 20 μM, 24 and 48 hours) | proteasome activity in cells ([2]; 2 hours incubation) | kinetics of proteasome inhibition in cells ([2]; reagent added first, activity measured over time) | Akt/PKB phosphorylation at Ser473 ([3]; GlbA treatment) | total Akt/PKB levels ([3]; GlbA treatment) | Akt/PKB phosphorylation at Ser473 after pre-treatment with 3-MA ([3]; GlbA with 3-MA pre-treatment) | PARP cleavage ([1]; Example 15, single agent) | GlbA-induced PARP cleavage in presence of 3-MA ([1]; GlbA with 3-MA) | pIC50 ([2]; 2 hours, read-out: IC50 of proteasomal activity) | potency of GlbA relative to SylA ([2]; ratio of IC50) |
| --- | --- | --- | --- | --- | --- | --- | --- | --- | --- | --- |
| CC(C)[C@H](NC(=O)N[C@H](C(=O)N[C@H]1/C=C/CCNC(=O)/C=C/[C@H](C(C)C)NC1=O)C(C)C)C(=O)O [syringolin A] | induces apoptosis-associated PARP cleavage | dose-dependent decrease of proteasome activity | inhibited proteasome activity in a time and dose-dependent manner in the micromolar range |  |  |  |  |  |  |  |
| CCCCCCC/C=C/C=C/C(=O)N[C@H](C(=O)N[C@H]1C[C@@H](O)CCNC(=O)/C=C/[C@H](C)NC1=O)[C@@H](C)O [glidobactin A] |  |  |  | phosphorylated at Ser473 | slight decrease | prevented | PARP cleavage was observed | slightly reduced this effect | 7.26 | approximately 26 fold |
